Laboratory results as given in patent US8501446B2 (Vertex Pharmaceuticals Incorporated, priority 2004, dated 2013).

What was measured:
Type in all cases: biochemical
[1] = target: T1, full length Aurora-A (AA 1-403) (Homo sapiens, UniProt O14965); assay: Aurora-A inhibition assay, standard coupled enzyme system; conditions: average Ki if more than one value determined
T1 construct: full length Aurora-A (AA 1-403)
T1 sequence (O14965 1-403): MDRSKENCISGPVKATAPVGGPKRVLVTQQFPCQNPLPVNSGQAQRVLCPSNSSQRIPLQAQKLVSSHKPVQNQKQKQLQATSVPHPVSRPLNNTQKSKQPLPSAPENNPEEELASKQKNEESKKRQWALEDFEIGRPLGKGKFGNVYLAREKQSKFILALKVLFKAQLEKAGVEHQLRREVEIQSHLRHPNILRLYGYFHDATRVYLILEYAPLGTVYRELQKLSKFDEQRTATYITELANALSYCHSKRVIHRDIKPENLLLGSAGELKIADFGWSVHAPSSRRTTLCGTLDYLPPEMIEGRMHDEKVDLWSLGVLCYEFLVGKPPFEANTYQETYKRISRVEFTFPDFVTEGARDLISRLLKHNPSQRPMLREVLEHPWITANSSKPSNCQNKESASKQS

JAK2 = JAK2 (Homo sapiens, UniProt O60674); assay: JAK2 inhibition assay (radioactive enzyme assay, as for JAK3); conditions: average Ki if more than one value determined
JAK2, sequence (O60674 whole entry, species assumed): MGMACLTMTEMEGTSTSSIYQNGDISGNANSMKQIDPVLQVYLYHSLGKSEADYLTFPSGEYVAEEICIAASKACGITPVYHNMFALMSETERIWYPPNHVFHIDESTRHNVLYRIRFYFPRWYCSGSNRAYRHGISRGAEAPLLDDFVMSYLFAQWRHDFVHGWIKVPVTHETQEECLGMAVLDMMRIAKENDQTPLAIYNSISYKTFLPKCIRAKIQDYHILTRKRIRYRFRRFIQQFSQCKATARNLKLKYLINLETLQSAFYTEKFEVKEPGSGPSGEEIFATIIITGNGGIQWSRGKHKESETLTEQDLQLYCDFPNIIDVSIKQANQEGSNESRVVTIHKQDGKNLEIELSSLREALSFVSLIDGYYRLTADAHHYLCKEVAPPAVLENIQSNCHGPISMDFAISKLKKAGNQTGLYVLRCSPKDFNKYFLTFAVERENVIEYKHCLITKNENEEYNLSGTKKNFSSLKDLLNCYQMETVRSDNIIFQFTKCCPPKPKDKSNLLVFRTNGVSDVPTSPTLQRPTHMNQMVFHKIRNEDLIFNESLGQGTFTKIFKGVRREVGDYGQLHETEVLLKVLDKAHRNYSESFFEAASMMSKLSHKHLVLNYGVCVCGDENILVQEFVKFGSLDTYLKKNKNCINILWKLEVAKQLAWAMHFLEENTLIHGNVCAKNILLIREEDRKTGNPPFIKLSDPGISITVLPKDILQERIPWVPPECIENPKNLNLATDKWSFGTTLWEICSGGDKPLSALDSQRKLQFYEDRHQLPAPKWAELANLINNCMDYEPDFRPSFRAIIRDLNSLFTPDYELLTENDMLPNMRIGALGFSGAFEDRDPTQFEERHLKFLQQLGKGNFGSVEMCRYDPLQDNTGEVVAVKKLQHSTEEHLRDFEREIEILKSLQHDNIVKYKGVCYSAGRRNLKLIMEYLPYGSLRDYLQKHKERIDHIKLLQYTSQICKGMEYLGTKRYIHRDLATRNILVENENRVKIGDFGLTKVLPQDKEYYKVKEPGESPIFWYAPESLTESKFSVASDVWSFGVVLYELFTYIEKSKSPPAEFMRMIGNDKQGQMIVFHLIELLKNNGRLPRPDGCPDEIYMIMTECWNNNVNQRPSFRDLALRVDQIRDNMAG
How it was run: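 Both kinases: poly(Glu)4Tyr substrate in 100 mM HEPES pH 7.4, 10 mM MgCl2, 1 mM DTT. Run 20 min at 25° C, TCA stop, filter-bound ³³P counted, Ki(app) fitted after background subtraction. JAK3: final [γ-³³P]ATP 5 μM, enzyme added as 2 nM solution. JAK2: final poly(Glu)4Tyr 15 μM, final ATP 12 μM.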

Aurora-B = Aurora-B (Homo sapiens, UniProt Q96GD4); assay: Aurora-B inhibition assay, radioactive assay; conditions: average Ki if more than one value determined
Aurora-B, sequence (Q96GD4 whole entry): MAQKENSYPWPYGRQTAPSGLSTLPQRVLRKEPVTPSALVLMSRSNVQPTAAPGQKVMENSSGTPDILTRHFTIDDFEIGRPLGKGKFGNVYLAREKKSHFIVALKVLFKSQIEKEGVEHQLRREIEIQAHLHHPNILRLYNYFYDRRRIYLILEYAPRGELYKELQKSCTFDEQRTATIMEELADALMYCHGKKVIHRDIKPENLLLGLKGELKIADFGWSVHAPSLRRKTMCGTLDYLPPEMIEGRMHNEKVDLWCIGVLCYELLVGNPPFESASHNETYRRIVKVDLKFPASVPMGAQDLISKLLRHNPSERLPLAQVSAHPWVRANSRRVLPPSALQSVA
How it was run: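 Radiometric [γ-33P]ATP kinase assay run as described for JAK3/ROCK but with Aurora-B protein; 33P incorporation into substrate measured by filter capture and scintillation counting after TCA quench. Background-subtracted data fit to give Ki(app).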

ROCK = ROCK (Homo sapiens, UniProt Q13464); assay: ROCK inhibition assay, standard radioactive enzyme assay ("33P")
ROCK, sequence (Q13464 whole entry): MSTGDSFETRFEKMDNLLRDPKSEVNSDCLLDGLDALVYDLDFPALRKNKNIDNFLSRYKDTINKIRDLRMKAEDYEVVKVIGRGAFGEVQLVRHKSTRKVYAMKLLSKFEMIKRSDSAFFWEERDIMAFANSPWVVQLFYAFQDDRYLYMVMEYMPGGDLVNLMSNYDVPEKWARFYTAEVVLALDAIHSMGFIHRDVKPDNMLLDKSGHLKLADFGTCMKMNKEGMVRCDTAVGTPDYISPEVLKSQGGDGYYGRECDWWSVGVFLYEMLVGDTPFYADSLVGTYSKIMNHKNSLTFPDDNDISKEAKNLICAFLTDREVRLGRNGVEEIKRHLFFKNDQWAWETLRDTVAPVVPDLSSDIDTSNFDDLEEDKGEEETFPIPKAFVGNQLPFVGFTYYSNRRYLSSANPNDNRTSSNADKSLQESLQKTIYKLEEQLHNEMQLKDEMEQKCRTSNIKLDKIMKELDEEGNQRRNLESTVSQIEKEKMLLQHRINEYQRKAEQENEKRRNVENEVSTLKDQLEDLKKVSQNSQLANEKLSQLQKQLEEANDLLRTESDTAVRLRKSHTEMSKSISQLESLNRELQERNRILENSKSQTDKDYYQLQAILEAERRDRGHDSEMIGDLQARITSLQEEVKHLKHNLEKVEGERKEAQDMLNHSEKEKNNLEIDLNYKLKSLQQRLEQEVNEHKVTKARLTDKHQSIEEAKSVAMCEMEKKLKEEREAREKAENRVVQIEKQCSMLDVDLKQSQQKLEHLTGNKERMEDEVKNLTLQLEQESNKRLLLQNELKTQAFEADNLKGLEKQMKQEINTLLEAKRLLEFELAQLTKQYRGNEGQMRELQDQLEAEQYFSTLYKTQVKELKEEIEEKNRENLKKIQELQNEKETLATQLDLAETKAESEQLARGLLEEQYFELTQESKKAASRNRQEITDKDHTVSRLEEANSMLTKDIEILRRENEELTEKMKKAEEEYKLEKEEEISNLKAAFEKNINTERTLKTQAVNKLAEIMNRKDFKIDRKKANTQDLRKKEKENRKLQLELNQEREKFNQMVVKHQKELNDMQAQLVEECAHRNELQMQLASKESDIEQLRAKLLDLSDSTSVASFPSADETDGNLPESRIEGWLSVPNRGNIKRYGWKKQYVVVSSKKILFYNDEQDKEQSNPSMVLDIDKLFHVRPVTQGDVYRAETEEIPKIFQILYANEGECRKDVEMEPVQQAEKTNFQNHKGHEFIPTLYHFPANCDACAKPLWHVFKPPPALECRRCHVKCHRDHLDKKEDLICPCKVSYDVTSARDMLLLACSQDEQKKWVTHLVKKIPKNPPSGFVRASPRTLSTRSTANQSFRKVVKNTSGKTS
How it was run: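 Radiometric kinase assay, 5 nM ROCK with 27 μM MBP and 13 μM [γ-33P]ATP in 100 mM HEPES pH 7.5, 10 mM MgCl2, 25 mM NaCl, 2 mM DTT, 1.5% DMSO; 2 h at room temperature, compounds 10 μM to 2.6 nM. TCA quench, filter capture, scintillation counting; background-subtracted data fit to Ki(app).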

Aurora-C = target: T2, Aurora-C (Homo sapiens, UniProt Q9UQB9); assay: Aurora-C inhibition assay, coupled enzyme system as for Aurora-A; conditions: average Ki if more than one value determined
T2 sequence (Q9UQB9 1-309): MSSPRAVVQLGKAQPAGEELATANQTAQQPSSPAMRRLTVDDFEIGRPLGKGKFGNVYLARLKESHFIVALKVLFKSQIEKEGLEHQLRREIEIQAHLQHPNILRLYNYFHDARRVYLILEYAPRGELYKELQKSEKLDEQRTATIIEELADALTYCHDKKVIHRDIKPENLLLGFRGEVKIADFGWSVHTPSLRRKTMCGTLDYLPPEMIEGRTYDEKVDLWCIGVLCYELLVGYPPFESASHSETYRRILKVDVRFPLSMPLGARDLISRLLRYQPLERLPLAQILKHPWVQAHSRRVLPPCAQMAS
How it was run: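 Coupled PK/LDH NADH-depletion assay with 35 nM enzyme, 200 μM ATP and 800 μM LRRASLG peptide in 100 mM HEPES pH 7.5, 10 mM MgCl2, 25 mM NaCl, 1 mM DTT, 3% DMSO at 30 °C. Compound (0.002-30 μM) was preincubated 10 min before ATP start; rates over 10 min gave Ki by nonlinear regression. Aurora-C run the same way.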

| SMILES | Ki [1] [nM] | Ki (JAK2) [nM] | Ki (Aurora-B) [nM] | Ki (ROCK) [nM] | Ki (Aurora-C) [nM] |
| --- | --- | --- | --- | --- | --- |
| C[C@H](Nc1cccc(-c2c[nH]c3ncc(Cl)cc23)n1)c1ccc(F)cc1 [Compound 395] | < 500 | < 500 | < 500 | – | – |
| CC(=O)N1[C@H](C)CN(c2cccc(-c3c[nH]c4ncc(Cl)cc34)n2)C[C@@H]1C [Compound 19] | < 500 | < 500 | – | < 500 | – |
| CCOC(=O)N1CCCN(c2nccc(-c3c[nH]c4ncc(OC)cc34)n2)CC1 [Compound 33] | < 500 | < 500 | – | < 500 | – |
| C[C@H](Nc1nc(-c2c[nH]c3ncc(Cl)cc23)ncc1F)C(=O)NCC(F)(F)F [Compound 369] | < 500 | – | < 500 | – | < 500 |
| COC(=O)c1cnc2[nH]cc(-c3cccc(N4C[C@@H](C)N(C(C)=O)[C@@H](C)C4)n3)c2c1 [Compound 35] | < 500 | < 500 | – | < 500 | – |
| COc1cnc2[nH]cc(-c3cccc(N4C[C@@H](C)N(C(C)=O)[C@@H](C)C4)n3)c2c1 [Compound 18] | 500 to 5000 | < 500 | – | 500 to 5000 | – |
